Test results: ChEMBL document CHEMBL6182861, “Structural modification of heptamethine indocyanine dyes with improved aqueous solubility and stability for photothermal therapy” (Eur J Med Chem, 2025)
Activity calls are given as the source filed them. The rule behind the calls is not given here.

How the values were obtained:
H22 = assay: Antitumor activity against mouse H22 cells implanted in female ICR mouse assessed as tumor growth inhibition at 2.5 mg/kg, iv pretreated for 4 hrs followed by exposure to laser irradiation of 808 nm for 5 mins on every 2 days treated for 15 days; type: functional, organism-based; conditions: time 15.0 day
[1] = Toxicity in female BALB/c mouse bearing mouse 4T1 cells assessed as damage in liver at 2.5 mg/kg, iv pretreated for 4 hrs followed by exposure to laser irradiation of 808 nm for 5 mins on every 2 days treated for 15 days by H and E staining based analysis; type: organism-based; conditions: in vivo, 360 h, time 15 day
4T1 [2] = assay: Antitumor activity against mouse 4T1 cells implanted in female BALB/c mouse assessed as nuclei rupture at 2.5 mg/kg, iv pretreated for 4 hrs followed by exposure to laser irradiation of 808 nm for 5 mins on every 2 days treated for 15 days by H and E staining based analysis; type: functional, organism-based; conditions: time 15.0 day
[3] = Toxicity in female BALB/c mouse bearing mouse 4T1 cells assessed as damage in lung at 2.5 mg/kg, iv pretreated for 4 hrs followed by exposure to laser irradiation of 808 nm for 5 mins on every 2 days treated for 15 days by H and E staining based analysis; type: organism-based; conditions: in vivo, 360 h, time 15 day
4T1 [4] = assay: Antitumor activity against mouse 4T1 cells implanted in female BALB/c mouse assessed as decrease in tumor weight at 2.5 mg/kg, iv pretreated for 4 hrs followed by exposure to laser irradiation of 808 nm for 5 mins on every 2 days treated for 15 days; type: functional, organism-based; conditions: time 15.0 day
4T1 [5] = assay: Antitumor activity against mouse 4T1 cells implanted in female BALB/c mouse assessed as loosely arranged cells at 2.5 mg/kg, iv pretreated for 4 hrs followed by exposure to laser irradiation of 808 nm for 5 mins on every 2 days treated for 15 days by H and E staining based analysis; type: functional, organism-based; conditions: time 15.0 day
4T1 [6] = assay: Antitumor activity against mouse 4T1 cells implanted in female BALB/c mouse assessed as decrease in tumor volume at 2.5 mg/kg, iv treated for 4 hrs on every 2 days treated for 15 days; type: functional, organism-based; conditions: time 15.0 day
4T1 [7] = assay: Antitumor activity against mouse 4T1 cells implanted in female BALB/c mouse assessed as cellular damage at 2.5 mg/kg, iv treated on every 2 days treated for 15 days by H and E staining based analysis; type: functional, organism-based; conditions: time 15.0 day
4T1 [8] = assay: Antitumor activity against mouse 4T1 cells implanted in female BALB/c mouse assessed as decrease in tumor size at 2.5 mg/kg, iv pretreated for 4 hrs followed by exposure to laser irradiation of 808 nm for 5 mins on every 2 days treated for 15 days; type: functional, organism-based; conditions: time 15.0 day
[9] = Toxicity in female BALB/c mouse bearing mouse 4T1 cells assessed as damage in kidney at 2.5 mg/kg, iv pretreated for 4 hrs followed by exposure to laser irradiation of 808 nm for 5 mins on every 2 days treated for 15 days by H and E staining based analysis; type: organism-based; conditions: in vivo, 360 h, time 15 day
Mitochondrial membrane [10] = assay: Inhibition of mitochondrial membrane potential in human HepG2 cells assessed as green fluorescence at 3.12 uM preincubated for 4 hrs followed by exposure to laser irradiation of 808 nm for 2 mins and subsequent incubation for 20 hrs by JC-1 dye based analysis; type: cell membranes; conditions: time 1442.0 min
[11] = Toxicity in ICR mouse bearing mouse H22 cells assessed as damage in liver at 2.5 mg/kg, iv pretreated for 4 hrs followed by exposure to laser irradiation of 808 nm for 5 mins on every 2 days treated for 15 days by H and E staining based analysis; type: organism-based; conditions: in vivo, 360 h, time 15 day
Mitochondrial membrane [12] = assay: Inhibition of mitochondrial membrane potential in mouse 4T1 cells assessed as green fluorescence at 3.12 uM preincubated for 4 hrs followed by exposure to laser irradiation of 808 nm for 2 mins and subsequent incubation for 20 hrs by JC-1 dye based analysis; type: cell membranes; conditions: time 1442.0 min
[13] = Drug accumulation in tumor of female BALB/c mouse bearing mouse 4T1 cells assessed as increase in fluorescence intensity at 2.5 mg/kg, iv measured after 4 hrs by fluorescence imaging analysis; type: ADME, organism-based, Neoplasm; conditions: in vivo
[14] = Toxicity in ICR mouse bearing mouse H22 cells assessed as damage in lung at 2.5 mg/kg, iv pretreated for 4 hrs followed by exposure to laser irradiation of 808 nm for 5 mins on every 2 days treated for 15 days by H and E staining based analysis; type: organism-based; conditions: in vivo, 360 h, time 15 day
[15] = Toxicity in female BALB/c mouse bearing mouse 4T1 cells assessed as body weight at 1.8 mg/kg, iv pretreated for 4 hrs followed by exposure to laser irradiation of 808 nm for 5 mins on every 2 days treated for 15 days; type: organism-based; conditions: in vivo, 360 h, time 15 day
[16] = Drug accumulation in tumor of female BALB/c mouse bearing mouse 4T1 cells assessed as increase in fluorescence intensity at 1.8 mg/kg, iv measured after 4 hrs by fluorescence imaging analysis; type: ADME, organism-based, Neoplasm; conditions: in vivo
[17] = Toxicity in ICR mouse bearing mouse H22 cells assessed as damage in spleen at 1.8 mg/kg, iv pretreated for 4 hrs followed by exposure to laser irradiation of 808 nm for 5 mins on every 2 days treated for 15 days by H and E staining based analysis; type: organism-based; conditions: in vivo, 360 h, time 15 day
[18] = Toxicity in ICR mouse bearing mouse H22 cells assessed as damage in lung at 1.8 mg/kg, iv pretreated for 4 hrs followed by exposure to laser irradiation of 808 nm for 5 mins on every 2 days treated for 15 days by H and E staining based analysis; type: organism-based; conditions: in vivo, 360 h, time 15 day
4T1 [19] = assay: Antitumor activity against mouse 4T1 cells implanted in female BALB/c mouse assessed as cellular damage at 1.8 mg/kg, iv pretreated for 4 hrs followed by exposure to laser irradiation of 808 nm for 5 mins on every 2 days treated for 15 days by H and E staining based analysis; type: functional, organism-based; conditions: time 15.0 day
[20] = Drug excretion in female BALB/c mouse bearing mouse 4T1 cells at 1.8 mg/kg, iv measured up to 12 hrs by fluorescence imaging analysis; type: ADME, organism-based; conditions: in vivo
4T1 [21] = assay: Antitumor activity against mouse 4T1 cells implanted in female BALB/c mouse assessed as decrease in tumor volume at 1.8 mg/kg, iv treated for 4 hrs on every 2 days treated for 15 days; type: functional, organism-based; conditions: time 15.0 day
[22] = Toxicity in female BALB/c mouse bearing mouse 4T1 cells assessed as damage in spleen at 1.8 mg/kg, iv pretreated for 4 hrs followed by exposure to laser irradiation of 808 nm for 5 mins on every 2 days treated for 15 days by H and E staining based analysis; type: organism-based; conditions: in vivo, 360 h, time 15 day
[23] = Toxicity in ICR mouse bearing mouse H22 cells assessed as damage in kidney at 1.8 mg/kg, iv pretreated for 4 hrs followed by exposure to laser irradiation of 808 nm for 5 mins on every 2 days treated for 15 days by H and E staining based analysis; type: organism-based; conditions: in vivo, 360 h, time 15 day
[24] = Toxicity in female BALB/c mouse bearing mouse 4T1 cells assessed as damage in lung at 1.8 mg/kg, iv pretreated for 4 hrs followed by exposure to laser irradiation of 808 nm for 5 mins on every 2 days treated for 15 days by H and E staining based analysis; type: organism-based; conditions: in vivo, 360 h, time 15 day
4T1 [25] = assay: Antitumor activity against mouse 4T1 cells implanted in female BALB/c mouse assessed as tumor growth inhibition at 1.8 mg/kg, iv pretreated for 4 hrs followed by exposure to laser irradiation of 808 nm for 5 mins on every 2 days treated for 15 days; type: functional, organism-based; conditions: time 15.0 day
4T1 [26] = assay: Photothermal cytotoxicity against mouse 4T1 cells up to 25 uM preincubated for 4 hrs followed by exposure to laser irradiation of 808 nm for 2 mins and subsequent incubation for 20 hrs by MTT assay; type: functional, cell-based

COCCOCCOCCN1/C(=C/C=C/C(=C/C=C/C2=[N+](CCOCCOCCOC)c3ccccc3C2(C)C)C(=O)OC)C(C)(C)c2ccccc21.[I-]
inhibition (H22): Active
Activity [1]: Non-toxic
Activity (4T1 [2]): Active
Activity [3]: Non-toxic
Activity (4T1 [4]): Active
Activity (4T1 [5]): Active
Activity (4T1 [6]): inactive
Activity (4T1 [7]): Not active; Minor Cell Damage Was Observed
Activity (4T1 [8]): Active
Activity [9]: Non-toxic
inhibition (Mitochondrial membrane [10]): Active
Activity [11]: Non-toxic
inhibition (Mitochondrial membrane [12]): Active
Drug uptake [13]: Active
Activity [14]: Non-toxic

COC(=O)C(=C\C=C\C1=[N+](C)c2ccccc2C1(C)C)/C=C/C=C1/N(C)c2ccccc2C1(C)C.[I-]
Activity [15]: 18 g
Drug uptake [16]: Active
Activity [17]: Non-toxic
Activity [18]: Non-toxic
Activity (4T1 [19]): Not active; Minor Cell Damage Was Observed
Drug excretion [20]: Active
Activity (4T1 [21]): inactive
Activity [22]: Non-toxic
Activity [23]: Non-toxic
Activity [24]: Non-toxic
inhibition (4T1 [25]): Active; Minimal Effect Was Observed
Activity (4T1 [26]): Not active; Limited Photo-Thermal Toxicity Was Observed
